In patent publication US20250275539A1, “APYRASE INHIBITORS” (Texas Crop Science, Inc., priority 2024, published 2025) one finds Inhibition data, which are given here for 16 molecules.

This assay has as its system apyrase. In words: Apyrase inhibition assay (screen for apyrase inhibitors, phosphate release read at 630 nm). The class given is biochemical. The settings on record: inhibitor conc at 1 mM (10 μl added), 3 mM ATP, pH 6.5, room temperature 1 hr. Here is the method:
Apyrase inhibitors useful as enhancers of pesticidal activity are assessed using an in vitro assay. The method of Windsor, Bio Techniques 33:1024-1030 (November 2002) was used as follows
• 96 well plates were used for the assay: (Greiner bio-one: REF-655901-96 well, PS, F-bottom, Clear, Non-binding)
• Reaction Buffer: 60 mM Hepes; 3 mM MgCl2, 3 mM CaCl2) and 3 mM ATP (pH 6.5) • Development Buffer A: 2% aqueous ammonium molybdate • Development Buffer B: 11% ascorbic acid in 37.5% TCA in water • Stop buffer C: 2% trisodium citrate in 2% acetic acid solution in water
• Add 100 μl of reaction buffer to each well. • Add 10 μl of DMSO (control) or inhibitor/compound or compounds such as N1915 or orthovanadate to each well. (use inhibitor conc at 1 mM; orthovanadate at 2 mM and N1915 at 1 mM) • Add 10 μl of apyrase (concentration based on optimization—Dilute 1 U/μl enzyme to different concentrations such as 0.1 U, 0.05 U, 0.0025, 0.001 U, 0.0005 U—to find a good range) • Incubate plate at room temperature for 1 hr • Mix development buffer A and B in the ratio of 1:1.5 (just before use). • Add 50 μl of A: B mix in each well (incubate for 2 mins) • Add 50 μl of C in each well • Measure/Read Absorbance of plate @630 nm
Inhibitory data for the apyrase assay described above are provided for selected compounds in Table 3. D is inhibition of 0% to 10%, C is inhibition from 10% to 20%, B is inhibition from 20% to 30%, and A is inhibition above 30%. Blank entries signify compounds that were not tested.

For the molecule `CCCc1ccc(S(=O)(=O)Nc2cc(S(=O)(=O)N3CCCCC3)ccc2C)cc1` [Compound A-90, N-(2-methyl-5-(piperidin-1-ylsulfonyl)phenyl)-4-propylbenzenesulfonamide], the Inhibition result was “A (A is inhibition above 30%)”.
Take `CCCc1ccc(S(=O)(=O)Nc2ccccc2Cc2ccccc2)cc1` [Compound A-91, N-(2-benzylphenyl)-4-propylbenzenesulfonamide]: the Inhibition entry is “B (B is inhibition from 20% to 30%)”.
Take `CCCc1ccc(S(=O)(=O)Nc2c(C)cccc2C)cc1` [Compound A-92, N-(2,6-dimethylphenyl)-4-propylbenzenesulfonamide]: the Inhibition entry is listed as “B (B is inhibition from 20% to 30%)”.
Take `CCCc1ccc(S(=O)(=O)Nc2ccc(-c3nnc4n3CCCCC4)cc2)cc1` [Compound A-93, 4-propyl-N-(4-(6,7,8,9-tetrahydro-5H-[1,2,4]triazolo[4,3-a]azepin-3-yl)phenyl) benzenesulfonamide]: the Inhibition entry is listed as “D (D is inhibition of 0% to 10%)”.
The same measure for `CCCc1ccc(S(=O)(=O)Nc2ccccc2NS(=O)(=O)c2ccc(F)cc2)cc1` [Compound A-94, 4-fluoro-N-(2-((4-propylphenyl)sulfonamido)phenyl)benzenesulfonamide]: “A (A is inhibition above 30%)”; for `CCCc1ccc(S(=O)(=O)Nc2cc(OC)c(OC)cc2C(=O)OC)cc1` [Compound A-96, methyl 4,5-dimethoxy-2-((4-propylphenyl)sulfonamido) benzoate]: “C (C is inhibition from 10% to 20%)”; for `CCCc1ccc(S(=O)(=O)Nc2ccc(S(=O)(=O)N(C)C)cc2)cc1` [Compound A-97, N,N-dimethyl-4-((4-propylphenyl)sulfonamido) benzenesulfonamide]: “C (C is inhibition from 10% to 20%)”.
In the case of `Cc1cccc(NS(=O)(=O)c2ccc(NC(=O)Nc3ccc([N+](=O)[O-])cc3)cc2)c1` [Compound A-98, 4-(3-(4-nitrophenyl)ureido)-N-(m-tolyl)benzenesulfonamide] it was “A (A is inhibition above 30%)”; in that of `COc1ccccc1Oc1ccc(S(=O)(=O)Nc2cccc(C)c2)cc1` [Compound A-100, 4-(2-methoxyphenoxy)-N-(m-tolyl)benzenesulfonamide], “D (D is inhibition of 0% to 10%)”.
The same measure for `Cc1cccc(NS(=O)(=O)c2ccc(OCC(=O)O)cc2)c1` [Compound A-101, 2-(4-(N-(m-tolyl)sulfamoyl)phenoxy) acedtic acid]: “B (B is inhibition from 20% to 30%)”.
As to `CCCc1ccc(S(=O)(=O)Nc2ccc(Cl)c(C(=O)O)c2)cc1` [Compound A-102, 2-chloro-5-((4-propylphenyl)sulfonamido) benzoic acid], the Inhibition result is “D (D is inhibition of 0% to 10%)”.
The same measure for `CCCc1ccc(S(=O)(=O)Nc2ccc(C)c(S(N)(=O)=O)c2)cc1` [Compound A-104, N-(4-methyl-3-sulfamoylphenyl)-4-propylbenzenesulfonamide]: “D (D is inhibition of 0% to 10%)”; for `O=S(=O)(c1ccc(-c2ccccc2)cc1)N1CCCSCC1` [Compound A-106, 4-([1,1′-biphenyl]-4-ylsulfonyl)-1,4-thiazepane]: “D (D is inhibition of 0% to 10%)”.
In the case of `CCCc1ccc(S(=O)(=O)Nc2ccccc2-c2nncn2C)cc1` [Compound A-107, N-(2-(4-methyl-4H-1,2,4-triazol-3-yl)phenyl)-4-propylbenzenesulfonamide] it was “C (C is inhibition from 10% to 20%)”; in that of `CCCc1ccc(S(=O)(=O)Nc2ccccc2-n2cnnn2)cc1` [Compound A-109, N-(2-(1H-tetrazol-1-yl)phenyl)-4-propylbenzenesulfonamide], “C (C is inhibition from 10% to 20%)”.
The same measure for `CCCc1ccc(S(=O)(=O)Nc2cccc(CN3CCOC3=O)c2)cc1` [Compound A-110, N-(3-((2-oxooxazolidin-3-yl)methyl)phenyl)-4-propylbenzenesulfonamide]: “C (C is inhibition from 10% to 20%)”.
